Measured values published in PubChem BioAssay (NCI).
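96-well plates; 48 h exposure; 5 concentrations. Endpoints by linear interpolation between flanking doses. Not reached: highest tested concentration assigned. GI50 marks 50% less growth. TGI marks complete inhibition of growth.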

Key:
Assay in all cases: DTP human tumour cell line panel, 48 h
COLO 205 colon = tested on: COLO 205 colon
SK-OV-3 ovarian = tested on: SK-OV-3 ovarian
SNB-19 CNS = tested on: SNB-19 CNS
UACC-62 melanoma = tested on: UACC-62 melanoma
A549 NSCLC = tested on: A549 NSCLC
OVCAR-8 ovarian = tested on: OVCAR-8 ovarian
RXF 393 renal = tested on: RXF 393 renal
HCT-116 colon = tested on: HCT-116 colon
SK-MEL-28 melanoma = tested on: SK-MEL-28 melanoma
HS 578T breast = tested on: HS 578T breast

`COc1ccc(S(=O)(=O)n2c3ccccc3n3ncc(-c4nnc(C)o4)c23)cc1` showed a GI50 (COLO 205 colon) of 0.376 µM, a TGI (COLO 205 colon) of 17.1 µM and a GI50 (SK-OV-3 ovarian) of 0.598 µM. The TGI (SK-OV-3 ovarian) was > 100 µM, the GI50 (SNB-19 CNS) was 0.766 µM and the TGI (SNB-19 CNS) was > 100 µM. For the same molecule, the GI50 (UACC-62 melanoma) was 0.609 µM, the TGI (UACC-62 melanoma) was 32.5 µM and the GI50 (A549 NSCLC) was 0.768 µM. The TGI (A549 NSCLC) was > 100 µM, the GI50 (OVCAR-8 ovarian) was 1.27 µM and the TGI (OVCAR-8 ovarian) was > 100 µM. The GI50 (RXF 393 renal) was 0.319 µM, the TGI (RXF 393 renal) was 3.97 µM and the GI50 (HCT-116 colon) was 0.387 µM. The TGI (HCT-116 colon) was 24 µM, the GI50 (SK-MEL-28 melanoma) was 11.3 µM and the TGI (SK-MEL-28 melanoma) was 34.8 µM. The GI50 (HS 578T breast) was 0.394 µM and the TGI (HS 578T breast) was > 100 µM.
`COc1cc(N=Nc2cccc(S(N)(=O)=O)c2)c2ccccc2c1N` gave a TGI (COLO 205 colon) of 26.5 µM, a TGI (SK-OV-3 ovarian) of 30.7 µM and a TGI (SNB-19 CNS) of 42.2 µM. The TGI (UACC-62 melanoma) was 4.19 µM, the TGI (A549 NSCLC) was 33 µM and the TGI (OVCAR-8 ovarian) was 56 µM. It also gave a TGI (RXF 393 renal) of 33.6 µM, a TGI (HCT-116 colon) of 29.2 µM and a TGI (SK-MEL-28 melanoma) of 19.9 µM. For the same molecule, the TGI (HS 578T breast) was > 27.2 µM.
For `C#CCOc1cccc(Nc2ncc3ncn(C4CCN(C(=O)CCl)C4)c3n2)c1` (centres undefined), the GI50 (COLO 205 colon) was > 62.5 µM, the TGI (COLO 205 colon) was > 62.5 µM and the GI50 (SK-OV-3 ovarian) was > 62.5 µM. The TGI (SK-OV-3 ovarian) was > 62.5 µM, the GI50 (SNB-19 CNS) was > 62.5 µM and the TGI (SNB-19 CNS) was > 62.5 µM. The GI50 (UACC-62 melanoma) was > 62.5 µM, the TGI (UACC-62 melanoma) was > 62.5 µM and the GI50 (A549 NSCLC) was > 62.5 µM. For the same molecule, the TGI (A549 NSCLC) was > 62.5 µM, the GI50 (OVCAR-8 ovarian) was > 62.5 µM and the TGI (OVCAR-8 ovarian) was > 62.5 µM. The GI50 (RXF 393 renal) was > 62.5 µM, the TGI (RXF 393 renal) was > 62.5 µM and the GI50 (HCT-116 colon) was 21.5 µM. The TGI (HCT-116 colon) was > 62.5 µM, the GI50 (SK-MEL-28 melanoma) was > 62.5 µM and the TGI (SK-MEL-28 melanoma) was > 62.5 µM. The GI50 (HS 578T breast) was > 62.5 µM and the TGI (HS 578T breast) was > 62.5 µM.
`O[C@H](CN1CC1)[C@@H](O)CN1CC1` gave a GI50 (COLO 205 colon) of 12.4 µM, a TGI (COLO 205 colon) of 25.5 µM and a GI50 (SK-OV-3 ovarian) of 4.91 µM. For the same molecule, the TGI (SK-OV-3 ovarian) was 29.9 µM, the GI50 (SNB-19 CNS) was 6.58 µM and the TGI (SNB-19 CNS) was > 100 µM. The GI50 (UACC-62 melanoma) was 3.96 µM, the TGI (UACC-62 melanoma) was > 100 µM and the GI50 (A549 NSCLC) was 7.28 µM. The TGI (A549 NSCLC) was > 100 µM, the GI50 (OVCAR-8 ovarian) was 3.75 µM and the TGI (OVCAR-8 ovarian) was > 100 µM. For the same molecule, the GI50 (RXF 393 renal) was 7.35 µM, the TGI (RXF 393 renal) was 26.1 µM and the GI50 (HCT-116 colon) was 5.83 µM. It also gave a TGI (HCT-116 colon) of 35.6 µM, a GI50 (SK-MEL-28 melanoma) of 19.5 µM and a TGI (SK-MEL-28 melanoma) of 84.7 µM. For the same molecule, the GI50 (HS 578T breast) was 20.4 µM and the TGI (HS 578T breast) was 79.2 µM.
`O=C(Nc1cccc([N+](=O)[O-])c1)c1cc2ccccc2cc1O` gave a GI50 (COLO 205 colon) of 1.88 µM, a TGI (COLO 205 colon) of 3.44 µM and a GI50 (SK-OV-3 ovarian) of 1.84 µM. The TGI (SK-OV-3 ovarian) was 6.07 µM, the GI50 (SNB-19 CNS) was 2.93 µM and the TGI (SNB-19 CNS) was > 100 µM. The GI50 (UACC-62 melanoma) was 0.685 µM, the GI50 (A549 NSCLC) was 2.84 µM and the TGI (A549 NSCLC) was > 100 µM. It also gave a GI50 (OVCAR-8 ovarian) of 3.31 µM, a TGI (OVCAR-8 ovarian) of 26.1 µM and a GI50 (RXF 393 renal) of 2.57 µM. For the same molecule, the TGI (RXF 393 renal) was 9.05 µM, the GI50 (HCT-116 colon) was 0.772 µM and the TGI (HCT-116 colon) was 3.17 µM. For the same molecule, the GI50 (SK-MEL-28 melanoma) was 3.23 µM, the TGI (SK-MEL-28 melanoma) was > 100 µM and the GI50 (HS 578T breast) was 1.24 µM. The TGI (HS 578T breast) was 10.4 µM.
`O=C(Nc1ccc(-c2ccnc(Nc3ccc(N4CCOCC4)cc3)n2)cc1)C1CCCN1` (centres undefined) gave a GI50 (COLO 205 colon) of 5.25 µM, a TGI (COLO 205 colon) of 20.5 µM and a GI50 (SK-OV-3 ovarian) of 11.8 µM. For the same molecule, the TGI (SK-OV-3 ovarian) was 32.8 µM, the GI50 (SNB-19 CNS) was 18 µM and the TGI (SNB-19 CNS) was 64.7 µM. It also gave a GI50 (UACC-62 melanoma) of 6.63 µM, a TGI (UACC-62 melanoma) of 20.8 µM and a GI50 (A549 NSCLC) of 5.66 µM. For the same molecule, the TGI (A549 NSCLC) was 35.3 µM, the GI50 (OVCAR-8 ovarian) was 5.09 µM and the TGI (OVCAR-8 ovarian) was 28.3 µM. It also gave a GI50 (RXF 393 renal) of 2.23 µM, a TGI (RXF 393 renal) of 9.36 µM and a GI50 (HCT-116 colon) of 1.43 µM. The TGI (HCT-116 colon) was 18.5 µM, the GI50 (SK-MEL-28 melanoma) was 8.95 µM and the TGI (SK-MEL-28 melanoma) was 22.3 µM. For the same molecule, the GI50 (HS 578T breast) was 3 µM and the TGI (HS 578T breast) was 24.8 µM.
